According to PubChem BioAssay AID330 (DTP/NCI, 2004):
Several values for one entry are separate records, joined by “and”; a condition that tells them apart may be missing. Equal entries are not always repeated. Toxic doses and inconclusive results are not listed.

System: P388 leukemia ip, CD2F1 mice, survival T/C
Assay: NCI In Vivo Anticancer Drug Screen. Data for tumor model P388 Leukemia (intraperitoneal) in CD2F1 (CDF1) mice
Conditions: endpoint: median survival time, higher = longer survival
Summary of the method: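 Mice carrying the transplanted tumor received test compound or vehicle. Survival was recorded in each group, and the value is the treated-group measurement divided by that of the vehicle-treated control group.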

[1] = dose: 50.0 mg/kg/injection, schedule: Q01DX005 (ip), vehicle: saline with Tween-80
[2] = dose: 100.0 mg/kg/injection, schedule: Q01DX005 (ip), vehicle: saline with Tween-80
[3] = dose: 200.0 mg/kg/injection, schedule: Q01DX005 (ip), vehicle: saline with Tween-80
[4] = dose: 50.0 mg/kg/injection, schedule: Q01DX009 (ip), vehicle: saline
[5] = dose: 100.0 mg/kg/injection, schedule: Q01DX009 (ip), vehicle: saline
[6] = dose: 100.0 mg/kg/injection, schedule: Q01DX009 (ip), vehicle: saline with Tween-80
[7] = dose: 200.0 mg/kg/injection, schedule: Q01DX009 (ip), vehicle: saline with Tween-80
[8] = dose: 60.0 mg/kg/injection, schedule: Q01DX005 (ip), vehicle: saline with Tween-80
[9] = dose: 120.0 mg/kg/injection, schedule: Q01DX005 (ip), vehicle: saline with Tween-80
[10] = dose: 100.0 mg/kg/injection, schedule: Q01DX009 (ip), vehicle: Klucel (hydroxypropylcellulose) (HPC)
[11] = dose: 50.0 mg/kg/injection, schedule: Q01DX005 (ip), vehicle: Klucel (hydroxypropylcellulose) (HPC)
[12] = dose: 100.0 mg/kg/injection, schedule: Q01DX005 (ip), vehicle: Klucel (hydroxypropylcellulose) (HPC)
[13] = dose: 200.0 mg/kg/injection, schedule: Q01DX005 (ip), vehicle: Klucel (hydroxypropylcellulose) (HPC)
[14] = dose: 12.5 mg/kg/injection, schedule: Q01DX009 (ip), vehicle: saline with Tween-80
[15] = dose: 50.0 mg/kg/injection, schedule: Q01DX009 (ip), vehicle: saline with Tween-80
[16] = dose: 25.0 mg/kg/injection, schedule: Q01DX009 (ip), vehicle: other
[17] = dose: 50.0 mg/kg/injection, schedule: Q01DX009 (ip), vehicle: other
[18] = dose: 100.0 mg/kg/injection, schedule: Q01DX009 (ip), vehicle: other
[19] = dose: 200.0 mg/kg/injection, schedule: Q01DX009 (ip), vehicle: other

Compound: CCN(CC)CCOCCc1ccccc1
- T/C (dose: 12.5 mg/kg/injection, schedule: Q01DX005 (ip), vehicle: saline with Tween-80): 98 % of control
- T/C (dose: 25.0 mg/kg/injection, schedule: Q01DX005 (ip), vehicle: saline with Tween-80): 98 % of control
- T/C [1]: 98 % of control and 100 % of control

Compound: Oc1ccccc1C=NCCSSCCN=Cc1ccccc1O
- T/C (dose: 60.0 mg/kg/injection, schedule: Q01DX005 (ip), vehicle: Klucel (hydroxypropylcellulose) (HPC)): 106 % of control
- T/C (dose: 120.0 mg/kg/injection, schedule: Q01DX005 (ip), vehicle: Klucel (hydroxypropylcellulose) (HPC)): 101 % of control
- T/C (dose: 240.0 mg/kg/injection, schedule: Q01DX005 (ip), vehicle: Klucel (hydroxypropylcellulose) (HPC)): 108 % of control

Compound: COc1ccc(/C=N/OC(=S)NC2CCCCC2)cc1OC
- T/C [1]: 102 % of control
- T/C [2]: 94 % of control
- T/C [3]: 93 % of control

Compound: CCN(CC)C(=O)C(Cc1ccc(OC)c(OC)c1)C(Cc1ccc(OC)c(OC)c1)C(=O)O (centres undefined)
- T/C (dose: 100.0 mg/kg/injection, schedule: Q04DX003 (ip), vehicle: other): 95 % of control
- T/C (dose: 200.0 mg/kg/injection, schedule: Q04DX003 (ip), vehicle: other): 95 % of control
- T/C (dose: 400.0 mg/kg/injection, schedule: Q04DX003 (ip), vehicle: other): 95 % of control

Compound: CN(C(=O)C(Cl)Cl)c1ccc(-c2csc(-c3ccc(O)cc3)n2)cc1
- T/C (dose: 100.0 mg/kg/injection, schedule: Q04DX003 (ip), vehicle: Klucel (hydroxypropylcellulose) (HPC)): 100 % of control
- T/C (dose: 200.0 mg/kg/injection, schedule: Q04DX003 (ip), vehicle: Klucel (hydroxypropylcellulose) (HPC)): 99 % of control
- T/C (dose: 400.0 mg/kg/injection, schedule: Q04DX003 (ip), vehicle: Klucel (hydroxypropylcellulose) (HPC)): 99 % of control

Compound: Cc1cc(NC(=O)C(=O)CC(=O)c2cccnc2)no1
- T/C [1]: 102 % of control
- T/C [2]: 101 % of control
- T/C [3]: 101 % of control

Compound: CCN1C(=O)c2ccccc2C1=O
- T/C [4]: 101 % of control
- T/C [5]: 90 % of control
- T/C (dose: 200.0 mg/kg/injection, schedule: Q01DX009 (ip), vehicle: saline): 110 % of control

Compound: COc1cccc(CCl)c1
- T/C [6]: 110 % of control and 118 % of control
- T/C [7]: 117 % of control and 124 % of control

Compound: Cn1c(=O)ccc2c1nc1ccccc1[n+]2[O-]
- T/C [8]: 101 % of control
- T/C [9]: 102 % of control

Compound: CS(=O)(=O)OCCOS(C)(=O)=O
- T/C [4]: 111 % of control
- T/C [10]: 92 % of control
- T/C [5]: 123 % of control
- T/C (dose: 400.0 mg/kg/injection, schedule: Q01DX009 (ip), vehicle: saline): 163 % of control

Compound: COCC(=O)c1ccccc1-c1ccccc1
- T/C [1]: 100 % of control
- T/C [2]: 103 % of control
- T/C [3]: 110 % of control

Compound: CCN(CC)CCN1C(=O)c2cccc3cc([N+](=O)[O-])cc(c23)C1=O
- T/C (dose: 12.5 mg/kg/injection, schedule: Q01DX005 (ip), vehicle: Klucel (hydroxypropylcellulose) (HPC)): 107 % of control
- T/C (dose: 25.0 mg/kg/injection, schedule: Q01DX005 (ip), vehicle: Klucel (hydroxypropylcellulose) (HPC)): 124 % of control
- T/C [11]: 156 % of control
- T/C [12]: 195 % of control

Compound: O=C(NCCCCCCNC(=O)c1ccccc1)c1ccccc1
- T/C [11]: 100 % of control and 90 % of control
- T/C [12]: 107 % of control and 86 % of control
- T/C [13]: 89 % of control and 90 % of control

Compound: COc1ccc(SC(N(C)C)=[N+](C)C)cc1
- T/C (dose: 15.0 mg/kg/injection, schedule: Q01DX005 (ip), vehicle: saline): 100 % of control
- T/C (dose: 30.0 mg/kg/injection, schedule: Q01DX005 (ip), vehicle: saline): 100 % of control
- T/C (dose: 60.0 mg/kg/injection, schedule: Q01DX005 (ip), vehicle: saline): 102 % of control and 121 % of control

Compound: CCc1cc2c(cc1C(=O)CBr)C(C)(C)CCC2(C)C
- T/C (dose: 6.25 mg/kg/injection, schedule: Q01DX009 (ip), vehicle: saline with Tween-80): 109 % of control
- T/C [14]: 113 % of control
- T/C (dose: 12.5 mg/kg/injection, schedule: Q04DX003 (ip), vehicle: saline with Tween-80): 118 % of control
- T/C (dose: 25.0 mg/kg/injection, schedule: Q04DX003 (ip), vehicle: saline with Tween-80): 113 % of control

Compound: COC(=O)Nc1ccc2c(c1)Cc1cc(NC(=O)OC)ccc1-2
- T/C [1]: 94 % of control
- T/C [2]: 92 % of control
- T/C [3]: 90 % of control

Compound: CN(C)C1C(=O)C(C(=O)NCN2CCN(CCO)CC2)=C(O)C2(O)C(=O)C3=C(O)c4c(O)cccc4C(C)(O)C3CC12 (centres undefined)
- T/C (dose: 25.0 mg/kg/injection, schedule: Q01DX005 (ip), vehicle: saline): 104 % of control
- T/C (dose: 50.0 mg/kg/injection, schedule: Q01DX005 (ip), vehicle: saline): 102 % of control
- T/C (dose: 100.0 mg/kg/injection, schedule: Q01DX005 (ip), vehicle: saline): 104 % of control
- T/C (dose: 200.0 mg/kg/injection, schedule: Q01DX005 (ip), vehicle: saline): 95 % of control

Compound: CC(=O)OC/C=C(\C)CC(/C=C(C)/C=C/C1=C(C)CCCC1(C)C)S(=O)(=O)c1ccccc1 (centres undefined)
- T/C [14]: 100 % of control
- T/C (dose: 25.0 mg/kg/injection, schedule: Q01DX009 (ip), vehicle: saline with Tween-80): 106 % of control
- T/C [15]: 90 % of control and 93 % of control
- T/C [7]: 92 % of control

Compound: CCOC(=O)C(CC(=O)O)Cc1cccc(OC)c1OC (centres undefined)
- T/C [16]: 101 % of control
- T/C [17]: 100 % of control
- T/C [18]: 111 % of control
- T/C [19]: 97 % of control
- T/C (dose: 400.0 mg/kg/injection, schedule: Q01DX009 (ip), vehicle: other): 93 % of control

Compound: CCCCCCC[CH2][Sn]([F])([F])[CH2]CCCCCCC
- T/C (dose: 12.5 mg/kg/injection, schedule: Q04DX003 (ip), vehicle: saline): 102 % of control
- T/C (dose: 25.0 mg/kg/injection, schedule: Q04DX003 (ip), vehicle: saline): 106 % of control and 108 % of control
- T/C (dose: 50.0 mg/kg/injection, schedule: Q04DX003 (ip), vehicle: saline): 106 % of control and 116 % of control
- T/C (dose: 100.0 mg/kg/injection, schedule: Q04DX003 (ip), vehicle: saline): 101 % of control and 109 % of control and 121 % of control

Compound: Cn1c(=O)c2cc(O)cnc2n(C)c1=O
- T/C (dose: 100.0 mg/kg/injection, schedule: Q04DX003 (ip), vehicle: saline with Tween-80): 95 % of control
- T/C (dose: 200.0 mg/kg/injection, schedule: Q04DX003 (ip), vehicle: saline with Tween-80): 91 % of control
- T/C (dose: 400.0 mg/kg/injection, schedule: Q04DX003 (ip), vehicle: saline with Tween-80): 86 % of control

Compound: CC(C)(Cc1nocc1C(C)(C)CC#N)c1cc(CC(C)(C)C2(C)OCCO2)no1
- T/C [8]: 95 % of control
- T/C [9]: 88 % of control

Compound: CCOC(=O)C(=O)C1CC(c2ccccc2)=NNC1=O (centres undefined)
- T/C [15]: 99 % of control
- T/C [6]: 103 % of control
- T/C [7]: 96 % of control

Compound: CCOC1N=C(c2ccccc2)c2cc(Cl)ccc2NC1=O (centres undefined)
- T/C (dose: 50.0 mg/kg/injection, schedule: Q01DX009 (ip), vehicle: Klucel (hydroxypropylcellulose) (HPC)): 101 % of control
- T/C [10]: 95 % of control
- T/C (dose: 200.0 mg/kg/injection, schedule: Q01DX009 (ip), vehicle: Klucel (hydroxypropylcellulose) (HPC)): 93 % of control

Compound: [N-]=[N+]=NCC(=O)N1c2ccccc2Sc2ccccc21
- T/C [16]: 108 % of control
- T/C [17]: 103 % of control
- T/C [18]: 95 % of control
- T/C [19]: 108 % of control

Compound: O=[N+]([O-])CC(OCCCCCCCCCCO)C(Cl)(Cl)Cl (centres undefined)
- T/C [15]: 104 % of control
- T/C [6]: 100 % of control
- T/C [7]: 100 % of control

Compound: CCOC(=O)C1CCc2c(OC)c(C)cc(C)c2C1=O (centres undefined)
- T/C [11]: 103 % of control
- T/C [12]: 103 % of control
- T/C [13]: 95 % of control

Compound: Nc1nc(-c2ccccc2N=NN2CCN(N=Nc3ccccc3-c3nc(N)c4ccccc4n3)CC2)nc2ccccc12
- T/C (dose: 0.78 mg/kg/injection, schedule: Q01DX009 (ip), vehicle: Klucel (hydroxypropylcellulose) (HPC)): 104 % of control
- T/C (dose: 1.56 mg/kg/injection, schedule: Q01DX009 (ip), vehicle: Klucel (hydroxypropylcellulose) (HPC)): 102 % of control
- T/C (dose: 3.12 mg/kg/injection, schedule: Q01DX009 (ip), vehicle: Klucel (hydroxypropylcellulose) (HPC)): 95 % of control
- T/C (dose: 6.25 mg/kg/injection, schedule: Q01DX009 (ip), vehicle: Klucel (hydroxypropylcellulose) (HPC)): 100 % of control

Compound: N#CC1CC2OC1CC(=O)C2(O)c1occc(=O)c1O (centres undefined)
- T/C [15]: 100 % of control
- T/C [6]: 107 % of control
- T/C [7]: 105 % of control
